Assay results from patent publication US20150306049A1, “IMMEDIATE RELEASE FORMULATIONS OF CINACALCET” (K.H.S. PHARMA HOLDING GMBH, priority 2012, published 2015).
Like-named read-outs stand apart in the source and are kept apart here.

Conditions: for % Dissolution: 200 mg in 900 ml 0.1 N HCl, 37.0°C, 75 rpm
Procedure: 200mg of cinacalcet HCl of different D50 values was dropped into a vessel containing 900 ml of dissolution medium (0.1 N HCl) at 37.0+/−0.5° C. and stirred at 75 rpm.

## C[C@@H](NCCCc1cccc(C(F)(F)F)c1)c1cccc2ccccc12.Cl [cinacalcet HCl]
  solubility (dissolution) compared with larger particle sizes: much lower solubility
D50 = 20 μm, 0 min, D50 = 89 μm after 60 min set to 100%
  % Dissolution: 0%
D50 = 20 μm, 15 min, D50 = 89 μm after 60 min set to 100%
  % Dissolution: 24%
D50 = 20 μm, 30 min, D50 = 89 μm after 60 min set to 100%
  % Dissolution: 52%
D50 = 20 μm, 45 min, D50 = 89 μm after 60 min set to 100%
  % Dissolution: 74%
D50 = 20 μm, 60 min, D50 = 89 μm after 60 min set to 100%
  % Dissolution: 86%
D50 = 82 μm, 0 min, D50 = 89 μm after 60 min set to 100%
  % Dissolution: 0%
D50 = 82 μm, 15 min, D50 = 89 μm after 60 min set to 100%
  % Dissolution: 90%
D50 = 82 μm, 30 min, D50 = 89 μm after 60 min set to 100%
  % Dissolution: 96%
D50 = 82 μm, 45 min, D50 = 89 μm after 60 min set to 100%
  % Dissolution: 98%
D50 = 82 μm, 60 min, D50 = 89 μm after 60 min set to 100%
  % Dissolution: 98%
D50 = 89 μm, 0 min, D50 = 89 μm after 60 min set to 100%
  % Dissolution: 0%
D50 = 89 μm, 15 min, D50 = 89 μm after 60 min set to 100%
  % Dissolution: 87%
D50 = 89 μm, 30 min, D50 = 89 μm after 60 min set to 100%
  % Dissolution: 98%
D50 = 89 μm, 45 min, D50 = 89 μm after 60 min set to 100%
  % Dissolution: 99%
D50 = 89 μm, 60 min, set to 100%
  % Dissolution: 100%
